This is an account of results in patent US20250073358A1, “AROMATIC VINYL COMPOUND, METAL COMPLEX THEREOF, AND PREPARATION METHOD THEREFOR AND USE THEREOF” (SHANGHAI MAXINOVEL PHARMACEUTICALS CO., LTD., priority 2021, published 2025).

For data set [1], the target named is PD-1/PD-L1 (Homo sapiens (Human), UniProt Q9NZQ7). In words: Homogenouse Time-Resolved Fluorescence (HTRF) binding assay, PD-1/PD-L1. As for the experimental part:
Homogenouse Time-Resolved Fluorescence (HTRF) binding assay was used to detect the binding ability of the compound of the present disclosure to PD-1/PD-L1.
The purchased kit (CisBio, #64CUS000C-1) contains reagents required for experiments such as PD-1, PD-L1, anti-tag1-Eu, Anti-tag2-XL665, Dilute Buffer, and Detection Buffer.
• 1. The compound was configured with 100% DMSO into 10 concentrations with a concentration gradient of 3 times. • 2. The DMSO solution of the compound was added to Dilute Buffer solution, and the mixture was mixed well and transferred to a 96-well plate. • 3. PD-L1 was diluted with Dilute Buffer solution and then added to the above 96-well plate. • 4. PD-1 was diluted with Dilute Buffer solution and then added to the above 96-well plate, and incubated at room temperature for 30 minutes. • 5. One part of anti-tag1-Eu and one part of Anti-tag2-XL665 were added to Detection Buffer solution, and the mixture was mixed well and transferred to the above 96-well plate. • 6. The mixture in the 96-well plate was incubated at room temperature for 1 to 24 hours. • 7. The HTRF values were read with Envision.

Data set [2] concerns MC38-PDL1 tumor (MC-38-hPD-L1 cells). In words: Tumor targeting study in Micro-PET/CT scanning, bilateral tumor model (Effect Embodiment 3), left tumor. In kind it is in vivo, C57BL/6J mice. As to conditions: Micro-PET/CT imaging, bilateral tumor mice. An excerpt:
Tumor targeting study of compound 79 in Micro-PET/CT scanning 1. Experimental animal information: C57BL/6J mice, SPF grade; 15-21 g; model mouse construction: bilateral tumor • Construction of bilateral tumor model mice • Cell culture
Human-derived PD-L1 gene knock-in MC-38 cells (MC-38-hPD-L1 cells) were adherently cultured in vitro, and the culture conditions were DMEM medium plus 10% heat-inactivated fetal bovine serum and hygromycinB (final concentration was […]), and the cells were cultured at 37° C. with 5% CO2. Subculture of 2-3 times a week. When the cells were in the exponential growth phase, the cells were harvested, counted, and the left side of the mice was inoculated subcutaneously.
Mouse-derived MC-38 cells were adherently cultured in vitro, and the culture conditions were DMEM medium plus 10% heat-inactivated fetal bovine serum, and the cells were cultured at 37° C. with 5% CO2. Subculture of 2-3 times a week. When the cells were in the exponential growth phase, the cells were collected, counted, and the right side of the mice was inoculated subcutaneously.
100 μL of 1×10^6 MC-38-hPD-L1 cell suspension was inoculated subcutaneously on the left dorsal side of C57BL/6J mice. The same mice were subcutaneously inoculated with 100 μL of 1×10^6 MC-38 cell suspension on the right dorsal side on the second day. After inoculation, the mice were fed normally, and after a certain number of days, tumor-bearing mice with the volume of bilateral transplanted tumor in the range of 150 mm^3−350 mm^3 were selected for test.
After quality control, compound 79 was diluted with 10% ethanol in physiological saline, and the drug was extracted and injected into each animal through tail vein. The administration volume was 100 μL/animal, and the administration dose was 100-200 μCi/animal. The study of Micro-PET/CT imaging was performed at 0.5 h, 1.5 h, 2.5 h, 3.5 h after injection of compound 79.

Sequence of PD-1/PD-L1 (Q9NZQ7 19-238): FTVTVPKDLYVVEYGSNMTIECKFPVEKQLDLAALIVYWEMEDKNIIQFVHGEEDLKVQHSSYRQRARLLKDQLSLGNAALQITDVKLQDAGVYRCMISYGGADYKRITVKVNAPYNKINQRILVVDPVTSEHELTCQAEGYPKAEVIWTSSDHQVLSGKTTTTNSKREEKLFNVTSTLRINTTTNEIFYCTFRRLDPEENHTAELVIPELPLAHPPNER

Regarding `Cc1c(/C=C/c2cc(OCCCNC(=O)CN3CCN(CC(=O)O)CCN(CC(=O)O)CC3)c(CN3CCCC[C@H]3C(=O)O)cc2C(F)(F)F)cccc1-c1ccccc1` [Compound 64], the half-inhibitory concentration (IC50) – broadly, the midpoint of a concentration-inhibition curve – in data set [1] came to 0.7 nM. In data set [2], the “uptake value of left tumor (MC38-PDL1) compared with right tumor (MC38)” value is “significantly higher”.
